In this test the target is T1, HEK-Blue-hTLR7 cells (Homo sapiens, UniProt Q9NYK1).
T1 construct: expressed in transfected cells; host or cells: HEK-Blue-hTLR7 cells (HEK293-derived reporter line)
T1 sequence (Q9NYK1 27-1049): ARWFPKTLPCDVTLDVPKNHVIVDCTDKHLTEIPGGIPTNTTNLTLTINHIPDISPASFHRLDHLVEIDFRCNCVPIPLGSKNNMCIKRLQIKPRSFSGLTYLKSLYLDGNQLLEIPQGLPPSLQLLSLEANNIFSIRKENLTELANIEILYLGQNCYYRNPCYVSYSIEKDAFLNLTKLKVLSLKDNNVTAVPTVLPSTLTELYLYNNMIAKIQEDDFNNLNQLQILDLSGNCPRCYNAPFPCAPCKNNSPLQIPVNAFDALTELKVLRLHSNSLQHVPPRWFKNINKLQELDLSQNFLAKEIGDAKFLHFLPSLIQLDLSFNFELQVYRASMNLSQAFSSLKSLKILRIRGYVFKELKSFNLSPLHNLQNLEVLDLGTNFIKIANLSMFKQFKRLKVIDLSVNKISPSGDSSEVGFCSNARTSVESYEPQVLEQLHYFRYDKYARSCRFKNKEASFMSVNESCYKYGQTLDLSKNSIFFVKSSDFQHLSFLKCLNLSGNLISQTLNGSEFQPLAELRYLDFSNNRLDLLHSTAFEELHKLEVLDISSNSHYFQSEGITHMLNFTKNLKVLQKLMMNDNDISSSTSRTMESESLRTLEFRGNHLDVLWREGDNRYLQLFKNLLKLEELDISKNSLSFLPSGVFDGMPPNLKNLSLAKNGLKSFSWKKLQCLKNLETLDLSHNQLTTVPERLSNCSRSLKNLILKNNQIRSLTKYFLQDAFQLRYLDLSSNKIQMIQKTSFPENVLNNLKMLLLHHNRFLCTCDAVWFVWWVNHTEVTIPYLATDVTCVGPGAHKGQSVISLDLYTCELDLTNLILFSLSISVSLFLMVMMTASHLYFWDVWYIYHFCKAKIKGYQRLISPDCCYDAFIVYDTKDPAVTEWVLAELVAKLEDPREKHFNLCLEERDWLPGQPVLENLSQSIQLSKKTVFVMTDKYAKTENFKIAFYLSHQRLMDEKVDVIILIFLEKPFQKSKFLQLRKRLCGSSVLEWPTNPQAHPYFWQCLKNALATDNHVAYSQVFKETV
Description: HEK-Blue-hTLR7 cell inhibition assay. Particulars: R848 0.8 µM, 16 h, OD 620 nm, read-out: TLR7 IC50. It is filed as cell-based. The gist of the method: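 Cells were pre-incubated 4 h, then co-treated 16 h at 37 °C with compound (10 doses, 0.5–10000 nM final) plus R848 (0.8 µM for TLR7, 3 µM for TLR8) or ODN2006 (1 µM, TLR9). Reporter OD620 gave inhibition relative to DMSO blank and agonist-only controls; IC50 came from curve fitting.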

The term IC50 denotes the concentration that gives 50% inhibition. On to `CN1CCC(F)(c2nnc([C@]34CN(c5ccc(C#N)c6ncccc56)C[C@@]3(C(F)(F)F)C4)o2)C1` (stereo partly drawn) [Compound 47, 5-((1S,5R)-1-(5-(3-fluoro-1-methylpyrrolidin-3-yl)-1,3,4-oxadiazol-2-yl)-5-(trifluoromethyl)-3-azabicyclo[3.1.0]hexan-3-yl)quinoline-8-carbonitrile], for which the IC50 was less than 100 nM.

As for `CN1CC(F)(c2nnc([C@]34CN(c5ccc(C#N)c6ncccc56)C[C@@]3(C(F)(F)F)C4)o2)C1` [Compound 49, 5-((1S,5R)-1-(5-(3-fluoro-1-methylazetidin-3-yl)-1,3,4-oxadiazol-2-yl)-5-(trifluoromethyl)-3-azabicyclo[3.1.0]hexan-3-yl)quinoline-8-carbonitrile], the IC50 is less than 100 nM.

With `CN1CCC(c2nnc([C@]34CN(c5ccc(C#N)c6ncccc56)C[C@@]3(C(F)(F)F)C4)o2)C(F)C1` (stereo partly drawn) [Compound 50, 5-((1S,5R)-1-(5-(3-fluoro-1-methylpiperidin-4-yl)-1,3,4-oxadiazol-2-yl)-5-(trifluoromethyl)-3-azabicyclo[3.1.0]hexan-3-yl)quinoline-8-carbonitrile], the IC50 is less than 100 nM.

Turning to `CN(C)CCc1nnc([C@]23CN(c4ccc(C#N)c5ncccc45)C[C@@]2(C(F)(F)F)C3)o1` [Compound 51, 5-((1S,5R)-1-(5-(2-(dimethylamino)ethyl)-1,3,4-oxadiazol-2-yl)-5-(trifluoromethyl)-3-azabicyclo[3.1.0]hexan-3-yl)quinoline-8-carbonitrile], the IC50 was less than 100 nM.

`N#Cc1ccc(N2C[C@]3(c4nnc(C56CCC(N)(CC5)CC6)o4)C[C@]3(C(F)(F)F)C2)c2cccnc12` [Compound 52, 5-((1S,5R)-1-(5-(4-aminobicyclo[2.2.2]octan-1-yl)-1,3,4-oxadiazol-2-yl)-5-(trifluoromethyl)-3-azabicyclo[3.1.0]hexan-3-yl)quinoline-8-carbonitrile]: the IC50 is less than 100 nM.

Take `CN(C)C12CCC(c3nnc([C@]45CN(c6ccc(C#N)c7ncccc67)C[C@@]4(C(F)(F)F)C5)o3)(CC1)CC2` [Compound 53, 5-((1S,5R)-1-(5-(4-(dimethylamino)bicyclo[2.2.2]octan-1-yl)-1,3,4-oxadiazol-2-yl)-5-(trifluoromethyl)-3-azabicyclo[3.1.0]hexan-3-yl)quinoline-8-carbonitrile]: the IC50 is less than 100 nM.

Turning to `N#Cc1ccc(N2C[C@]3(c4nnc(C56CCC(NC(=O)[C@@H]7COCCN7)(CC5)CC6)o4)C[C@]3(C(F)(F)F)C2)c2cccnc12` [Compound 54, (S)-N-(4-(5-((1S,5R)-3-(8-cyanoquinolin-5-yl)-5-(trifluoromethyl)-3-azabicyclo[3.1.0]hexan-1-yl)-1,3,4-oxadiazol-2-yl)bicyclo[2.2.2]octan-1-yl)morpholine-3-carboxamide], the IC50 is less than 100 nM.

As for `N#Cc1ccc(N2C[C@]3(c4nnc([C@H]5CN(CC(N)=O)CCO5)o4)C[C@]3(C(F)(F)F)C2)c2cccnc12` [Compound 56, 2-((R)-2-(5-((1S,5R)-3-(8-cyanoquinolin-5-yl)-5-(trifluoromethyl)-3-azabicyclo[3.1.0]hexan-1-yl)-1,3,4-oxadiazol-2-yl)morpholino)acetamide], the IC50 was less than 100 nM.

Consider `N#Cc1ccc(N2C[C@]3(c4nnc(C5(F)CCNCC5)o4)C[C@]3(C(F)(F)F)C2)c2cccnc12` [Compound 60, 5-((1S,5R)-1-(5-(4-fluoropiperidin-4-yl)-1,3,4-oxadiazol-2-yl)-5-(trifluoromethyl)-3-azabicyclo[3.1.0]hexan-3-yl)quinoline-8-carbonitrile], for which the IC50 is less than 100 nM.

In the case of `COc1ccc(N2C[C@]3(c4nnc(C5CCN(C)CC5)o4)C[C@]3(C(F)(F)F)C2)c2cccnc12` [Compound 66, 2-((1S,5R)-3-(8-methoxyquinolin-5-yl)-5-(trifluoromethyl)-3-azabicyclo[3.1.0]hexan-1-yl)-5-(1-methylpiperidin-4-yl)-1,3,4-oxadiazole], the IC50 is less than 100 nM.

On to `CN1CCC(n2cc([C@]34CN(c5ccc(C#N)c6ncccc56)C[C@@]3(C(F)(F)F)C4)nn2)CC1` [Compound 71, 5-((1S,5R)-1-(1-(1-methylpiperidin-4-yl)-1H-1,2,3-triazol-4-yl)-5-(trifluoromethyl)-3-azabicyclo[3.1.0]hexan-3-yl)quinoline-8-carbonitrile], for which the IC50 was less than 100 nM.

Regarding `FC(F)(F)c1ccc(N2C[C@]3(c4nnc(C5CCNCC5)o4)C[C@]3(C(F)(F)F)C2)c2cccnc12` [Compound 75, 2-(piperidin-4-yl)-5-((1S,5R)-5-(trifluoromethyl)-3-(8-(trifluoromethyl)quinolin-5-yl)-3-azabicyclo[3.1.0]hexan-1-yl)-1,3,4-oxadiazole], the IC50 was less than 100 nM.

Regarding `FC(F)(F)c1ccc(N2C[C@]3(c4nnc(C5CCN(CC6CC6)CC5)o4)C[C@]3(C(F)(F)F)C2)c2cccnc12` [Compound 76, 2-(1-(cyclopropylmethyl)piperidin-4-yl)-5-((1S,5R)-5-(trifluoromethyl)-3-(8-(trifluoromethyl)quinolin-5-yl)-3-azabicyclo[3.1.0]hexan-1-yl)-1,3,4-oxadiazole], the IC50 is less than 100 nM.

As for `NC(=O)CN1CCC(c2nnc([C@]34CN(c5ccc(C(F)(F)F)c6ncccc56)C[C@@]3(C(F)(F)F)C4)o2)CC1` [Compound 77, 2-(4-(5-((1S,5R)-5-(trifluoromethyl)-3-(8-(trifluoromethyl)quinolin-5-yl)-3-azabicyclo[3.1.0]hexan-1-yl)-1,3,4-oxadiazol-2-yl)piperidin-1-yl)acetamide], the IC50 is less than 100 nM.

Consider `CN1[C@@H]2CC[C@H]1C[C@H](c1nnc([C@]34CN(c5ccc(C(F)(F)F)c6ncccc56)C[C@@]3(C(F)(F)F)C4)o1)C2` [Compound 79, 2-((1R,3S,5S)-8-methyl-8-azabicyclo[3.2.1]octan-3-yl)-5-((1S,5R)-5-(trifluoromethyl)-3-(8-(trifluoromethyl)quinolin-5-yl)-3-azabicyclo[3.1.0]hexan-1-yl)-1,3,4-oxadiazole], for which the IC50 was less than 100 nM.

Regarding `N#Cc1ccc(N2C[C@]3(c4nnc(C5CCNCC5)o4)C[C@]3(C(F)(F)F)C2)c2c(F)cnn12` [Compound 80, 3-fluoro-4-((1S,5R)-1-(5-(piperidin-4-yl)-1,3,4-oxadiazol-2-yl)-5-(trifluoromethyl)-3-azabicyclo[3.1.0]hexan-3-yl)pyrazolo[1,5-a]pyridine-7-carbonitrile], the IC50 was less than 100 nM.

With `NC12CCC(c3nnc([C@]45CN(c6ccc(C(F)(F)F)c7ncccc67)C[C@@]4(C(F)(F)F)C5)o3)(CC1)CC2` [Compound 81, 4-(5-((1S,5R)-5-(trifluoromethyl)-3-(8-(trifluoromethyl)quinolin-5-yl)-3-azabicyclo[3.1.0]hexan-1-yl)-1,3,4-oxadiazol-2-yl)bicyclo[2.2.2]octan-1-amine], the IC50 is less than 100 nM.

On to `CN1CCC(c2nnc([C@]34CN(c5ccc(C#N)n6ncc(Br)c56)C[C@@]3(C(F)(F)F)C4)o2)CC1` [Compound 83, 3-bromo-4-((1S,5R)-1-(5-(1-methylpiperidin-4-yl)-1,3,4-oxadiazol-2-yl)-5-(trifluoromethyl)-3-azabicyclo[3.1.0]hexan-3-yl)pyrazolo[1,5-a]pyridine-7-carbonitrile], for which the IC50 is less than 1000 nM.

Take `CN1CCC(c2nnc([C@]34CN(c5ccc(C#N)n6ncc(Cl)c56)C[C@@]3(C(F)(F)F)C4)o2)CC1` [Compound 84, 3-chloro-4-((1S,5R)-1-(5-(1-methylpiperidin-4-yl)-1,3,4-oxadiazol-2-yl)-5-(trifluoromethyl)-3-azabicyclo[3.1.0]hexan-3-yl)pyrazolo[1,5-a]pyridine-7-carbonitrile]: the IC50 is less than 100 nM.

Take `CN1CCC(c2nnc([C@]34CN(c5c(Br)cc(C#N)n6ncc(Br)c56)C[C@@]3(C(F)(F)F)C4)o2)CC1` [Compound 85, 3,5-dibromo-4-((1S,5R)-1-(5-(1-methylpiperidin-4-yl)-1,3,4-oxadiazol-2-yl)-5-(trifluoromethyl)-3-azabicyclo[3.1.0]hexan-3-yl)pyrazolo[1,5-a]pyridine-7-carbonitrile]: the IC50 was greater than 1000 nM.

Regarding `CN1CCC(c2nnc([C@]34CN(c5c(Br)cc(C#N)n6nccc56)C[C@@]3(C(F)(F)F)C4)o2)CC1` [Compound 86, 5-bromo-4-((1S,5R)-1-(5-(1-methylpiperidin-4-yl)-1,3,4-oxadiazol-2-yl)-5-(trifluoromethyl)-3-azabicyclo[3.1.0]hexan-3-yl)pyrazolo[1,5-a]pyridine-7-carbonitrile], the IC50 is less than 1000 nM.

For the origin of these results see patent EP4806891A1 (Kangbaida (Sichuan) Biotechnology Co., Ltd., priority 2023, dated 2025).
